Test results taken from PubChem BioAssay (NCI).
Several values for one entry are separate records, joined by “and”; a condition that tells them apart may be missing. Equal values may be shown once.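 1) Cells in 96-well plates. 2) Compound, 48 h, 5 concentrations. 3) Linear interpolation between surrounding doses. 4) Unreached endpoint = highest concentration. Abbreviation: GI50, concentration required for 50% inhibition of growth. TGI: total growth inhibition.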

Tests used:
Test in all cases: DTP human tumour cell line panel, 48 h
HOP-62 NSCLC = tested on: HOP-62 NSCLC
SF-268 CNS = tested on: SF-268 CNS
HCT-15 colon = tested on: HCT-15 colon
SNB-19 CNS = tested on: SNB-19 CNS
U251 CNS = tested on: U251 CNS
EKVX NSCLC = tested on: EKVX NSCLC
OVCAR-3 ovarian = tested on: OVCAR-3 ovarian
COLO 205 colon = tested on: COLO 205 colon
MDA-MB-231 breast = tested on: MDA-MB-231 breast
SR leukemia = tested on: SR leukemia

Compound	TGI (HOP-62 NSCLC)	TGI (SF-268 CNS)	TGI (HCT-15 colon)	TGI (SNB-19 CNS)	TGI (U251 CNS)	TGI (EKVX NSCLC)	TGI (OVCAR-3 ovarian)	TGI (COLO 205 colon)	GI50 (HOP-62 NSCLC)	GI50 (SF-268 CNS)	GI50 (HCT-15 colon)	GI50 (SNB-19 CNS)	GI50 (U251 CNS)	GI50 (MDA-MB-231 breast)	TGI (MDA-MB-231 breast)	GI50 (EKVX NSCLC)	GI50 (OVCAR-3 ovarian)	GI50 (COLO 205 colon)	TGI (SR leukemia)
O=C(CC/C(CC(=O)c1ccc(Cl)cc1)=N\O)Nc1cccc(Cl)c1	> 100 µM	> 100 µM	> 100 µM	> 100 µM	> 100 µM	> 100 µM	> 100 µM	> 100 µM											
NC(=O)C1C(=O)Oc2cccnc21 (stereo not given)	> 100 µM		> 100 µM	> 100 µM	> 100 µM	> 100 µM	> 100 µM	> 100 µM											
C=C(/C=C/C=C(\CO)CCC=C(C)C)[C@H]1CCC2([C@H](CCCO)/C(=C(/C)C=O)CC[C@]2(C)O)[C@H]1O (stereo not given in full)	> 100 µM		> 100 µM	> 100 µM	> 100 µM	> 100 µM	> 100 µM	> 100 µM											
CCOC(=O)C(=O)Nc1nc2ccc(OC)cc2s1	> 100 µM	> 100 µM	> 100 µM	> 100 µM	> 100 µM	> 100 µM	> 100 µM	> 100 µM											
COc1ccc2c(c1)CCC1C2CCC2(C)C(NC(=O)CCCCC3CCSS3)CCC12 (stereo not given)	> 100 µM	> 100 µM	> 100 µM	> 100 µM	> 100 µM	> 100 µM	> 100 µM	> 100 µM	> 100 µM	6.85 µM	8.21 µM	> 100 µM	17.5 µM	14.1 µM	> 100 µM	> 100 µM	12.6 µM	5.49 µM	
CNC(=O)N(CCCCC(NC(C)=O)C(=O)NCc1ccccc1)Cc1ccccc1 (stereo not given)	> 100 µM	> 100 µM	> 100 µM	> 100 µM	> 100 µM	> 100 µM	> 100 µM	> 100 µM											
CC1(C)N=C(N)N=C(N)N1c1ccc(CCCCCCc2ccc(S(=O)(=O)F)cc2)cc1	15.8 µM	31.3 µM	20.9 µM	5.17 µM	16.6 µM	21.3 µM	32.4 µM	12.8 µM							16.5 µM				
COc1ccc(S(=O)(=O)NNS(C)(=O)=O)cc1OC	> 100 µM	> 100 µM	> 100 µM	> 100 µM	> 100 µM	> 100 µM		> 100 µM											> 100 µM
Nc1nc2c([nH]1)c1[nH]c3ccccc3c1c1[nH]c3ccccc3c21	27.3 µM	32.6 µM	31.4 µM	25.5 µM	14.3 µM	30.8 µM	25.7 µM		13.8 µM	16.2 µM	13.6 µM	12.8 µM	3.99 µM	4.39 µM	16.9 µM	14.1 µM	12.6 µM		
Cc1cc(N(CCC#N)CCC#N)ccc1/C=C1N=C(/C=C\c2ccccc2)N(c2ccc(C(=O)O)cc2)C\1=O	> 100 µM	> 100 µM	> 100 µM	> 100 µM	> 100 µM		> 100 µM	> 100 µM											> 100 µM
COc1ccc(C2C(C(=O)O)=C(COC(C)=O)Oc3cc4c(cc32)OCO4)c(OC)c1 (stereo not given)	> 100 µM		> 100 µM	> 100 µM	> 100 µM	> 100 µM	> 100 µM	> 100 µM											
O=S1(=O)CS(=O)(=O)OCCCCCO1		> 100 µM	> 100 µM	> 100 µM	> 100 µM	> 100 µM		> 100 µM											
c1ccc2c(c1)n1nnnc1c1nnnn21	> 100 µM	> 100 µM	> 100 µM	> 100 µM	> 100 µM	> 100 µM	> 100 µM	> 100 µM											
COc1cc2c(c(OC)c1OC)-c1ccc(SC)c(=O)cc1C(CC(=O)Oc1ccccc1F)C2 (stereo not given)	> 7.5 µM	> 7.5 µM	0.248 µM	> 7.5 µM	0.108 µM		0.0272 µM	0.0376 µM											> 7.5 µM
C=C(c1ccc(C(=O)NCCCn2ccnc2)cc1)c1cc2c(cc1C)C(C)(C)CCC2(C)C	11.6 µM	> 100 µM	17 µM	> 100 µM	3.29 µM	> 100 µM	6.09 µM	3.28 µM	2.46 µM	3.83 µM	0.118 µM	2.25 µM	0.288 µM	1.44 µM	9.78 µM	4.84 µM	1.69 µM	1.12 µM	
CC(=O)O[C@H]1C(=O)[C@@]2(C)C([C@H](OC(=O)c3ccccc3)[C@]3(O)C[C@H](OC(=O)[C@H](O)[C@@H](NC(=O)c4ccc(Cl)cc4)c4ccccc4)C(C)=C1C3(C)C)C1(OC(C)=O)CO[C@@H]1C[C@@H]2O (stereo not given in full)	25 µM and 25.2 µM	25 µM and 82.5 µM	25 µM and 4.92 µM	25 µM and > 100 µM		25 µM and > 100 µM	0.108 µM		0.261 µM		0.2 µM	0.0849 µM			25 µM	1.11 µM			
COc1ccc(/C(C#N)=C2/O/C(=N/N)C(c3ccc(OC)c(OC)c3)C2=O)cc1OC (stereo not given)		> 100 µM	> 100 µM		> 100 µM	> 100 µM	> 100 µM												> 100 µM
COc1ccc(C2=NOC3=c4ccccc4=CSC3=C2c2ccccc2)cc1	> 100 µM	79.6 µM	> 100 µM	> 100 µM	> 100 µM	> 100 µM	79.5 µM	> 100 µM	17.3 µM	23.5 µM	22.3 µM	34.7 µM	25.2 µM	20.3 µM	76 µM	94 µM	25 µM	48.7 µM	
O=C(N[C@H]1CC2(C=C(I)C(=O)C(I)=C2)OC1=O)OCc1ccccc1	45.6 µM	33.1 µM	44.2 µM	47.6 µM	31.5 µM	27.3 µM	31.3 µM	28.1 µM											
O=C(Cc1csc2nc(-c3ccc(Br)cc3)cn12)N/N=C/c1ccccc1O	14.9 µM	> 100 µM	17.3 µM	25.4 µM	15.1 µM	19.2 µM	15.1 µM	23.1 µM	3.88 µM	> 100 µM	0.952 µM	6.8 µM	3.67 µM	3.27 µM	17 µM	3.93 µM	3.22 µM	5.08 µM	
C#CCN(CCCOc1ccc(Cl)cc1Cl)CCCSC(=O)CCCCCN1/C(=C\C=C2/CCCC(/C=C/C3=[N+](CCCCCC(=O)[O-])c4ccccc4C3(C)C)=C2Cl)C(C)(C)c2ccccc21	5.72 µM	6.74 µM	21.9 µM	3.64 µM	2.11 µM	12.8 µM	3.31 µM	3.39 µM	2.1 µM	1.84 µM	4.12 µM	1.12 µM	0.733 µM	1.94 µM	4.64 µM	2.42 µM	1.45 µM	1.41 µM	
Clc1cc(Cl)cc(Nc2ccc3c(OCCCN4CCOCC4)cccc3n2)c1	7.03 µM	9.63 µM	3.52 µM	4.39 µM	3.95 µM	9.15 µM	9.63 µM	3.56 µM	2.29 µM	3 µM	1.75 µM	2.08 µM	1.98 µM	1.8 µM	3.94 µM	2.95 µM	2.92 µM	1.77 µM	
Cc1cccc(NC(=O)CSc2nnc(-c3ccc(N=Cc4ccc(Cl)cc4)cc3)o2)c1	> 100 µM	> 100 µM	> 100 µM	> 100 µM	> 100 µM	> 100 µM		> 100 µM											> 100 µM
CCOc1ccccc1NC(=O)C1=C(C)NC(C)=C(C(=O)Nc2ccccc2OCC)C1c1ccc2c(c1)OCO2	> 100 µM	> 100 µM		> 100 µM	> 100 µM	> 100 µM	71.8 µM	> 100 µM											
Cc1cc2nc3c(C(OC4OC(CO)C(O)C(O)C4O)C(O)CO)nn(-c4ccc(F)cc4)c3nc2cc1C (stereo not given)	> 100 µM	> 100 µM	> 100 µM	> 100 µM	> 100 µM	> 100 µM	> 100 µM												> 100 µM
COC(=O)C1C(=O)NC2(C)CC1c1ccccc1O2 (stereo not given)	> 10 µM	> 100 µM	> 100 µM	> 100 µM	> 100 µM		> 10 µM												> 100 µM
O=C(Cn1ccnc1[N+](=O)[O-])NCc1ccc(F)cc1	> 100 µM	> 100 µM	> 100 µM	> 100 µM	> 100 µM	> 100 µM	> 100 µM	> 100 µM											
O=C1Cc2c([nH]c3ccccc23)-c2cc(Br)ccc2N1	> 100 µM	> 100 µM	> 100 µM	> 100 µM	> 100 µM	> 100 µM	> 100 µM	> 100 µM											
COc1cc([C@H]2c3cc4c(cc3[C@H](NCc3ccc(F)cc3)C3COC(=O)[C@H]32)OCO4)cc(OC)c1O (stereo not given in full)	3.82 µM	> 100 µM	16.2 µM	51.2 µM	4.35 µM	28.8 µM	29.3 µM	31.5 µM											
